Experiments:
thromboxane synthase = molecular target: T1, thromboxane synthase (Homo sapiens, UniProt P24557); test: Test of thromboxane synthase inhibitory action (production of thromboxane B2 in human platelet microsomes); assay type: biochemical; conditions: suppressing production of thromboxane (thromboxane B2), prostaglandin H2, EIA, read-out: TxSI IC50
T1 construct: containing human platelet microsomes (50 µg protein/ml) and the test compound; from tissue; host or cells: human platelet microsomes
T1 sequence (P24557 1-533): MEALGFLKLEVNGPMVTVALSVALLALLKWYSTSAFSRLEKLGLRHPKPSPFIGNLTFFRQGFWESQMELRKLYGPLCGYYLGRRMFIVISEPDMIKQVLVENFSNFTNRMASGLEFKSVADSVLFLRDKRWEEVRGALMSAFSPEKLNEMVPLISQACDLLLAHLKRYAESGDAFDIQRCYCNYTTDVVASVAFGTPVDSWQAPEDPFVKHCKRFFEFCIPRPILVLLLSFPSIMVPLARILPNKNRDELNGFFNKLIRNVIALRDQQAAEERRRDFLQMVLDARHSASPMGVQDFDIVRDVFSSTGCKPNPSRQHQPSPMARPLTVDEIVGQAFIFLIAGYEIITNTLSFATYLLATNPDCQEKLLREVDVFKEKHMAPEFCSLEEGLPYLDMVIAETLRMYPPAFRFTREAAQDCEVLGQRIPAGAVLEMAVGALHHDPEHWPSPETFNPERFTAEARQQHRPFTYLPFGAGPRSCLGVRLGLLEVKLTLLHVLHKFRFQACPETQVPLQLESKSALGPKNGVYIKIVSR
Procedure: Human platelet microsomes were used and a test of the thromboxane synthase inhibitory activity of the compounds was determined by the amount of production of thromboxane B2 as the thromboxane A2 stable metabdite.
[…] A reaction was initiated to added prostaglandin H2 (100 ng/2 µl), and terminated with 1N hydrocloric acid. Then neutralized by 1M Tris-base, and centrifuged at 3000 rpm for 20 minutes. The content of the thromboxane B2 in the supernatent was measured by the EIA method (Cayman Co. kit).
As the test compound, the same compounds as in Test Example 1 were used.

lipoxygenase = molecular target: T2, lipoxygenase (Rattus norvegicus, UniProt P12527); test: Test of lipoxygenase inhibitory action (production of leukotriene B4 in rat polymorphonuclear leukocytes); assay type: cell-based; conditions: inhibiting the production of leukotriene B4, calcium ionophore A-23187, EIA, read-out: LTBI IC50
T2 construct: the peritoneal cavities were lavaged and the polymorphonuclear leukocytes were recovered; endogenous in cells; host or cells: casein-elicited peritoneal polymorphonuclear leukocytes of Wistar male rats
T2 sequence (P12527 1-673): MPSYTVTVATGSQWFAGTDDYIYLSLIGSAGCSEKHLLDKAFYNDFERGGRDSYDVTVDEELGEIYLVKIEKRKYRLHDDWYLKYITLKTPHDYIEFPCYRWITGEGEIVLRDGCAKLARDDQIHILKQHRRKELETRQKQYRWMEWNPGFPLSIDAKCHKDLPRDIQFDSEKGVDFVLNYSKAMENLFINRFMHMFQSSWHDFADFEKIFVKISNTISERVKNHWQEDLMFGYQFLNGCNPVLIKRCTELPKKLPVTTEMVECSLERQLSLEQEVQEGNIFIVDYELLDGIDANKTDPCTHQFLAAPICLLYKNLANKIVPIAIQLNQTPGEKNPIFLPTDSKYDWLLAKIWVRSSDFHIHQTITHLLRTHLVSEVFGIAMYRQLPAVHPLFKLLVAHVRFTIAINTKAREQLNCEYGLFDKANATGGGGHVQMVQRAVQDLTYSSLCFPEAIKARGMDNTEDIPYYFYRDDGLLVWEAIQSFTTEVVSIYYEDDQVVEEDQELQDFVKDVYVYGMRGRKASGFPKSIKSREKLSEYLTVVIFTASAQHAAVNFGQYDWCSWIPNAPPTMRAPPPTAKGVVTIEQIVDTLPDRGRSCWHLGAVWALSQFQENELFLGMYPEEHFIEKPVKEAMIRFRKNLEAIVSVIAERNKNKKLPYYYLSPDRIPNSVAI
Procedure: Using rat polymorphonuclear leukocytes, a test of the lipoxygenase inhibitory activity of the test compounds was determined the amount of production of leukotriene B4.
Wistar male rats (Japan Clea) were intraperitoneally administered with 12% sodium casein. After 16 hours, the peritoneal cavities were lavaged and the polymorphonuclear leukocytes were recovered. The obtained polymorphonuclear leukocytes were suspended in a phosphate buffer (137 mM NaCl, 3 mM KCl, 8 mM Na2HPO4, 2 mM KH2PO4) (2.5 × 10^5 cells/0.4 ml), then the incubation was carried out at 37°C for 10 minutes the test compound (final concentration 10^-5M) was added and then for 5 minutes after a calcium solution (10 mM CaCl2, 0.86% NaCl) 0.1 ml was added, then 1.25 µl of calcium ionophore (20 µM, A-23187) was added and the reaction started. Five minutes after the addition, 250 µl of methanol was added to stop the reaction. After the reaction was stopped, the resultant mixture was centrifuged for 20 minutes (4°C, 3000 rpm), then the amount of leukotriene B4 in the supernatant was measured by the EIA method (Cayman Co. kit).
As the test compound, the above mentioned Compound 1 to Compound 4, Compound 9 to Compound 11, Compound 22 to Compound 26, Compound 28, Compound 29, compound 32, Compound 33, and Compound 40 to Compound 48 were used.

[1] = tested on: antigen-induced bronchoconstriction; test: Antigen-induced bronchoconstriction model of guinea pig (Konzett-Rossler method); assay type: in vivo; conditions: Cavia porcellus, po, 1 h; guinea pigs sensitized by ovalbumin, orally administered, one hour after administration; read-out: Suppression of Respiratory Constriction (ED50: mg/kg)
Procedure: Guinea pigs sensitized by ovalbumin were used and orally administered with the test compound suspended in 5% gum arabic. The activity for suppressing antigen-induced bronchoconstriction after one hour after administration was measured by the Konzett-Rossler method.
Each of the sensitized guinea pigs was anesthesized by 35 mg/kg pentobarbital, a airway cannula was inserted into the trachea and connected to an artificial respirator and transducer, a vein cannula was inserted into the jugular vein, and treatment was performed by 5 mg/kg soxamethonium and 5 mg/kg mepyramine. Next, the guinea pig was inhaled a nebulized ovalbumin to cause bronchoconstriction and the activity in suppressing bronchoconstriction was found from the ratio of the amount of overflow volume to the detector to the amount of air blown volume from the artificial respirator.
As the test compound, the Compound 7 was used. […]

| SMILES | IC50 (thromboxane synthase) [µM] | IC50 (lipoxygenase) [µM] | ED50 [1] [mg/kg] |
| --- | --- | --- | --- |
| NC(=O)N(O)CCCCC/C=C(\c1ccccc1)c1cccnc1 [Compound 1, N-hydroxy-N-[(E)-7-phenyl-7-(3-pyridyl)-6-hepten-1-yl]urea] | 0.0009 | 0.4 |  |
| NC(=O)N(O)CCCCC/C=C(/c1ccccc1)c1cccnc1 [Compound 2, N-hydroxy-N-[(Z)-7-phenyl-7-(3-pyridyl)-6-hepten-1-yl]urea] | 0.02 | 0.06 |  |
| O=C(NC1CCCCC1)N(O)CCCCC/C=C(/c1ccccc1)c1cccnc1 [Compound 3, N'-cyclohexyl-N-hydroxy-N-[(Z)-7-phenyl-7-(3-pyridyl)-6-hepten-1-yl]urea] | 0.009 | 0.05 |  |
| NC(=O)N(O)CCC=C(c1cccnc1)c1cccc(C(F)(F)F)c1 [Compound 4, N-hydroxy-N-[4-(3-pyridyl)-4-(3-trifluoromethylphenyl)-3-buten-1-yl] urea] | 0.006 | 2 |  |
| NC(=O)N(O)CCCC(c1ccccc1)c1cccnc1 (centres unmarked) [Compound 7, N-hydroxy-N-[4-phenyl-4-(3-pyridyl)butyl]urea] |  |  | 70 |
| O=C(NC1CCCCC1)N(O)CCCC(c1ccccc1)c1cccnc1 (centres unmarked) [Compound 9, N'-cyclohexyl-N-hydroxy-N-[4-phenyl-4-(3-pyridyl)butyl]urea] | 0.0003 | 1 |  |
| ON(CCCC(c1ccccc1)c1cccnc1)C(=S)NC1CCCCC1 (centres unmarked) [Compound 10, N'-cyclohexyl-N-hydroxy-N-[4-phenyl-4-(3-pyridyl)butyl]thiourea] | 0.0009 | 0.3 |  |
| COc1cccc(NC(=O)N(O)CCCC(c2ccccc2)c2cccnc2)c1 (centres unmarked) [Compound 11, N-hydroxy-N'-(3-methoxyphenyl)-N-[4-phenyl-4-(3-pyridyl)butyl]urea] | 0.002 | 0.5 |  |
| NC(=S)N(O)CCCCCC(c1ccccc1)c1cccnc1 (centres unmarked) [Compound 22, N-hydroxy-N-[6-phenyl-6-(3-pyridyl)hexyl]thiourea] | 0.004 | 0.2 |  |
| CCNC(=O)N(O)CCCCCC(c1ccccc1)c1cccnc1 (centres unmarked) [Compound 23, N'-ethyl-N-hydroxy-N-[6-phenyl-6-(3-pyridyl)hexyl]urea] | 0.006 | 0.2 |  |
| NC(=O)N(O)CCCCCCC(c1ccccc1)c1cccnc1 (centres unmarked) [Compound 24, N-hydroxy-N-[7-phenyl-7-(3-pyridyl)heptyl]urea] | 0.01 | 0.08 |  |
| O=C(NC1CCCCC1)N(O)CCCCCCC(c1ccccc1)c1cccnc1 (centres unmarked) [Compound 25, N'-cyclohexyl-N-hydroxy-N-[7-phenyl-7-(3-pyridyl)heptyl]urea] | 0.005 | 0.06 |  |
| COc1cccc(NC(=O)N(O)CCCCCCC(c2ccccc2)c2cccnc2)c1 (centres unmarked) [Compound 26, N-hydroxy-N'-(3-methoxyphenyl)-N-[7-phenyl-7-(3-pyridyl)heptyl]urea] | 0.002 | 0.04 |  |
| CC(CCCCCC(c1ccccc1)c1cccnc1)N(O)C(N)=O (centres unmarked) [Compound 28, N-hydroxy-N-[1-methyl-7-phenyl-7-(3-pyridyl)heptyl]urea] | 0.007 | 0.1 |  |
| ON(CCCCCCCC(c1ccccc1)c1cccnc1)C(=S)Nc1ccccc1 (centres unmarked) [Compound 29, N-hydroxy-N'-phenyl-N-[8-phenyl-8-(3-pyridyl)octyl]thiourea] | 0.002 | 0.04 |  |
| CC(CCCCCCCC(c1ccccc1)c1cccnc1)N(O)C(=S)NC1CCCCC1 (centres unmarked) [Compound 32, N'-cyclohexyl-N-hydroxy-N-[1-methyl-9-phenyl-9-(3-pyridyl)nonyl]thiourea] | 0.009 | 0.1 |  |
| NC(=O)N(O)CCCCCCCCCC(c1ccccc1)c1cccnc1 (centres unmarked) [Compound 33, N-hydroxy-N-[10-phenyl-10-(3-pyridyl)decyl]urea] | 0.01 | 0.01 |  |
| NC(=O)N(O)C/C=C/CCCC(c1ccccc1)c1cccnc1 (centres unmarked) [Compound 40, N-hydroxy-N-[(E)-7-phenyl-7-(3-pyridyl)-2-hepten-1-yl]urea] | 0.03 | 0.2 |  |
| CC(/C=C/CCCC(c1ccccc1)c1cccnc1)N(O)C(N)=O (centres unmarked) [Compound 41, N-hydroxy-N-[(E)-1-methyl-7-phenyl-7-(3-pyridyl)-2-hepten-1-yl]urea] | 0.005 | 0.2 |  |
| NC(=O)N(O)Cc1cccc(OC(c2ccccc2)c2cccnc2)c1 (stereo not drawn) [Compound 42, N-hydroxy-N-[3-[α-(3-pyridyl)benzyloxy]benzyl]urea] | 0.06 | 0.3 |  |
| NC(=O)N(O)Cc1ccc(OC(c2ccccc2)c2cccnc2)cc1 (stereo not drawn) [Compound 43, N-hydroxy-N-[4-[α-(3-pyridyl)benzyloxy]benzyl]urea] | 0.05 | 0.5 |  |
| O=C(NC1CCCCC1)N(O)Cc1cccc(OC(c2ccccc2)c2cccnc2)c1 (stereo not drawn) [Compound 44, N'-cyclohexyl-N-hydroxy-N-[3-[α-(3-pyridyl)benzyloxy]benzyl]urea] | 0.005 | 0.2 |  |
| COc1cccc(NC(=O)N(O)Cc2cccc(OC(c3ccccc3)c3cccnc3)c2)c1 (stereo not drawn) [Compound 45, N-hydroxy-N'-(3-methoxyphenyl)-N-[3-[α-(3-pyridyl)benzyloxy]benzyl] urea] | 0.006 | 0.09 |  |
| CC(c1cccc(OC(c2ccccc2)c2cccnc2)c1)N(O)C(N)=O (stereo not drawn) [Compound 46, N-hydroxy-N-[3-[α-(3-pyridyl)benzyloxy]-α-methylbenzyl]urea] | 0.009 | 1 |  |
| NC(=O)N(O)Cc1cccc(CC(c2ccccc2)c2cccnc2)c1 (stereo not drawn) [Compound 47, N-hydroxy-N-[3-[β-(3-pyridyl)phenethyl]benzyl]urea] | 0.02 | 0.3 |  |
| CC(c1cccc(CC(c2ccccc2)c2cccnc2)c1)N(O)C(N)=O (stereo not drawn) [Compound 48, N-hydroxy-N-[3-[β-(3-pyridyl)phenethyl]-α-methylbenzyl]urea] | 0.03 | 0.8 |  |
| CC(c1cc2ccccc2s1)N(O)C(N)=O (centres unmarked) [Compound A-64077] |  |  | 300 |
| O=C(O)/C=C/c1ccc(Cn2ccnc2)cc1 [OKY-046] |  |  | 260 |
